Results on 1 molecule are retold here after paper PMC9231138, “Dihydrotanshinone I Enhances Cell Adhesion and Inhibits Cell Migration in Osteosarcoma U−2 OS Cells through CD44 and Chemokine Signaling” (Molecules, 2022).

Assay type in all cases: cell-based, human
Assay [1] has as its system U−2 OS cells. Description: Cell cycle distribution by flow cytometry. As to conditions: 24 h, mean ± SD. As to the method:
The cell cycle is a key regulator of cell survival and the repair signal network. It has direct effects on multiple cell processes, including cell proliferation, DNA repair, apoptosis, and cell migration. Thus, it was further analyzed by flow cytometry. As shown in Table 2 and Figure 5A–E, after treatment with DS−1 at doses of 0, 2.5, 5.0, and 7.5 µM for 24 h, the distribution of the cell cycle was measured and the proportion of the G0/G1 phase was 54.70 ± 2.21%, 61.07 ± 2.04%, 65.20 ± 4.35%, and 65.65 ± 1.83%, respectively. In addition, the proportion of U−2 OS cells at the G0/G1 phase increased with the increase in the DS−1 concentration (Figure 5A–E), implying possible cell cycle arrest at the G0/G1 phase.
Figure 5 DS−1 regulated the cell cycle of U−2 OS cells. (A–D) Cell cycle of U−2 OS cells was retained in the G0/G1 phase. U−2 OS cells were treated with DS−1 at 0, 2.5, 5.0, and 7.5 µM for 24 h, and the cell cycle ratio was measured by flow cytometry; the cell cycle distribution is shown in Table 2. (E) Histogram of cell cycle distribution after U−2 OS cells were treated with DS−1. (F) Heatmap of the expression of genes relating to cell cycle in the transcriptome results. (G–K) In U−2 OS cells treated with DS−1 at concentrations of 0, 2.5, 5.0, and 7.5 μM, RNA was extracted and analyzed by RT-PCR, and the changes in CDK2, cyclin D1, cyclin E1, and p21 mRNA are presented in the histogram. (L) Cyclin D1 and cyclin E1 protein relative expression was analyzed by Western blot. Values are the average of three independent experiments, * p < 0.05, ** p < 0.01, *** p < 0.005. TEXT PRINTED IN THE PICTURE: (A) DS-1: G1(54.88%) (0 μM); S(19.57%) (0 μM); G2(23.84%) (0 μM) | (B) DS-1: G1(60.37%) (2.5 μM); S(18.70%) (2.5 μM); G2(19.44%) (2.5 μM) | (C) DS-1: G1(65.10%) (5.0 μM); S(16.87%) (5.0 μM); G2(16.41%) (5.0 μM) | (D) DS-1: G0G1(65.65%) (7.5 μM); S(14.20%) (7.5 μM); G2M(19.60%) (7.5 μM) DOUBTS OF THE COPYIST ABOUT THIS PICTURE: The label DS-1 is printed only in panel L ("DS-1(μM)"); panels A-D print only the concentration, no substance label / Panel A (0 μM) is the untreated state; its values are given with the 0 μM heading as condition / All gate percentages in panels A-D are printed very small and blurred; 3, 5, 6, 8 and 9 cannot be told apart with certainty / A, G1: 54.88% or 54.89% / 54.68% / A, S: 19.57% or 19.67% / A, G2: 23.84% or 23.64% / B, G1: 60.37% or 60.31% / 80.37% / B, S: 18.70% or 16.70% / B, G2: 19.44% or 18.44% / C, G1: 65.10% or 65.16% / 63.10% / C, S: 16.87% or 16.67% / 18.87% / C, G2: 16.41% or 18.41% / D, G0G1: 65.65% or 65.85% / 66.65% / D, S: 14.20% or 14.26% / D, G2M: 19.60% or 19.80% / 19.66%
A general note: A flow cytometer gives signals particle by particle.

A further assay deals with snail. Put plainly: RT-PCR snail mRNA in U−2 OS cells. As to conditions: 24 h. How it is done:
Total RNA within cells was extracted by the RNAeasy™ Animal Long RNA Isolation Kit with Spin Column (Shanghai, Beyotime); the concentrations and OD260/OD280 and OD230/OD260 values were measured by NanoDrop. Five micrograms of RNA was used for reverse transcription; each sample was diluted to 16 μL, and 4 μL of synthesized premix solution (5×) was added, then the mixtures were placed in a 42 °C water bath for 10 min, then an 80 °C water bath for 10 min to deactivate reverse transcriptase. After reverse transcription, each sample was diluted to 140 μL. PCR amplification was carried out by the ABI700 real-time PCR system, and the amplification reaction was detected with a SYBR probe. After PCR, actin and GAPDH were used as internal references, and the relative standard curve method (2^−ΔΔcT) determined the relative expression of mRNA.

Assay [2] concerns U−2 OS cells. Put plainly: Length of actin protrusions (Image J). As to conditions: DS−1 for 24 h. As to the method: Figure 8 CD44 knockdown reduced cell adhesion by shortening cell protrusions. (A) U−2 OS cells transfected with CD44 siRNA and no siRNA were seeded into a 24-well plate treated with 7.5 μM DS−1 for 24 h, and the expression of CD44 was detected by immunofluorescence. (B) CD44 expression of U−2 OS cells was detected by Western blotting after being treated with siRNA for 0, 24, and 36 h. (C) U−2 OS cells were first transfected with/without CD44 siRNA and then treated with DS−1 for 24 h, and its actin morphologies were detected. The representative magnified actin morphologies are listed in (D). (E) The lengths of protrusions in (C) were analyzed by Image J and are shown in a scatterplot graph. The lengths of 20 protrusions from actin in (C) were calculated. Each value is the average of 20 lengths of protrusions, ** p < 0.01, *** p < 0.005. (F) U−2 OS cells were transfected with CD44 siRNA, then treated with 0 and 7.5 μM DS−1 for 24 h and digested with trypsin at 25 °C; the digestion time was recorded by a microscope, and photos were taken every 30 s. The percentage of digested cells is recorded in (G).
Actin promotes the formation of protrusions around the cells. After CD44 knockdown and DS−1 treatment, the morphology of actin was observed. The average length of protrusions was measured by Image J [59]. […]

Each structure is given as a SMILES string.

Consider `Cc1cccc2c3c(ccc12)C1=C(C(=O)C3=O)[C@@H](C)CO1` [DS−1, 15,16-Dihydrotanshinone I], for which the “proportion of cells in G0/G1 phase” value with U−2 OS cells [1] (DS−1 2.5 µM) is given as 61.07 ± 2.04%; in the assay on U−2 OS cells [1] (DS−1 5.0 µM), 65.20 ± 4.35%; in the assay with U−2 OS cells [1] (DS−1 7.5 µM), 65.65 ± 1.83%. Besides, the “proportion of cells in G2/M phase” value in the assay with U−2 OS cells [1] (DS−1 2.5 µM) came out at 18.65 ± 3.50; in the assay with U−2 OS cells [1] (DS−1 5.0 µM), 14.92 ± 4.67; with U−2 OS cells [1] (DS−1 7.5 µM), 19.60 ± 1.40. For the same molecule, the “proportion of cells in S phase” value in the assay with U−2 OS cells [1] (DS−1 2.5 µM) is 20.10 ± 2.07; in the assay on U−2 OS cells [1] (DS−1 5.0 µM) it was 19.55 ± 3.08; in the assay with U−2 OS cells [1] (DS−1 7.5 µM), 14.20 ± 0.40. Besides, the “snail mRNA, fold of the control group” value is on record as 0.46 ± 0.05 fold with snail (DS−1 5.0 µM) and 0.39 ± 0.03 fold in the assay with snail (DS−1 7.5 µM). In addition, the “average length of protrusions” value in the assay with U−2 OS cells [2] (CD44 knockdown group, knockdown without DS−1 0.203 ± 0.056 μm) is on record as 0.213 ± 0.061 μm; in the assay with U−2 OS cells [2] (no CD44 siRNA, control 0.307 ± 0.097 μm), 0.403 ± 0.103 μm.
